From ChEMBL document CHEMBL1201862, “PubChem BioAssay data set” (2004)
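Compound exposure: 48 hours, 5 concentrations, 96-well plates. GI50 = concentration required for 50% inhibition of growth.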 Active and inactive are the calls of the source. Cut-off read from the data, not from the text of the source: active = GI50 up to about 1.1 µM and inactive = higher.

Columns and labels:
Test in all cases: inhibition of tumour cell growth, NCI panel, 48 h
HT-29 = test system: HT-29
OVCAR-5 = test system: OVCAR-5
SF-295 = test system: SF-295
CAKI-1 = test system: CAKI-1
HOP-62 = test system: HOP-62
A549 = test system: A549
UO-31 = test system: UO-31
OVCAR-4 = test system: OVCAR-4
UACC-257 = test system: UACC-257
SNB-75 = test system: SNB-75
SK-MEL-5 = test system: SK-MEL-5
MOLT-4 = test system: MOLT-4
ACHN = test system: ACHN
SK-MEL-28 = test system: SK-MEL-28
OVCAR-3 = test system: OVCAR-3
SF-268 = test system: SF-268
NCI-H522 = test system: NCI-H522
HCC 2998 = test system: HCC 2998
SW-620 = test system: SW-620
SN12C = test system: SN12C

| Compound | GI50 (HT-29) | GI50 (OVCAR-5) | GI50 (SF-295) | GI50 (CAKI-1) | GI50 (HOP-62) | GI50 (A549) | GI50 (UO-31) | GI50 (OVCAR-4) | GI50 (UACC-257) | GI50 (SNB-75) | GI50 (SK-MEL-5) | GI50 (MOLT-4) | GI50 (ACHN) | GI50 (SK-MEL-28) | GI50 (OVCAR-3) | GI50 (SF-268) | GI50 (NCI-H522) | GI50 (HCC 2998) | GI50 (SW-620) | GI50 (SN12C) |
| --- | --- | --- | --- | --- | --- | --- | --- | --- | --- | --- | --- | --- | --- | --- | --- | --- | --- | --- | --- | --- |
| S=c1nc(Nc2ccc(Br)cc2)c2c3c(sc2[nH]1)CN(N1CCc2c(sc4[nH]c(=S)nc(Nc5ccc(Br)cc5)c24)C1)CC3 | 15.5 µM (inactive) | 16 µM (inactive) | 19.1 µM (inactive) | > 50 µM (inactive) | 17.5 µM (inactive) | 23 µM (inactive) | 20.1 µM (inactive) | 30.2 µM (inactive) | 28.6 µM (inactive) | > 50 µM (inactive) | 12 µM (inactive) | 12.8 µM (inactive) | 21.1 µM (inactive) | 11.6 µM (inactive) | 25.1 µM (inactive) | 33.7 µM (inactive) | 12.8 µM (inactive) | 23.1 µM (inactive) | 16.4 µM (inactive) | 28.4 µM (inactive) |
| CN(C)C(=S)/N=c1\ss/c(=N\S(=O)(=O)c2ccccc2)n1-c1ccccc1 | 0.0522 µM (active) | > 100 µM (inactive) | 20.3 µM (inactive) | > 100 µM (inactive) | 22.9 µM (inactive) | 14.1 µM (inactive) | 22 µM (inactive) | 0.185 µM (active) | 16.9 µM (inactive) | > 100 µM (inactive) | 0.0653 µM (active) | 5.35 µM (inactive) | 24.2 µM (inactive) | 63.7 µM (inactive) | 6.4 µM (inactive) | 38.9 µM (inactive) | 0.0855 µM (active) | 38.8 µM (inactive) | 9.95 µM (inactive) | 33 µM (inactive) |
| Clc1ccc(CCc2ccncn2)c(Cl)c1 | > 100 µM (inactive) | > 100 µM (inactive) | 61.4 µM (inactive) | 50.2 µM (inactive) | > 100 µM (inactive) | > 100 µM (inactive) | 38.5 µM (inactive) | > 100 µM (inactive) | 38.1 µM (inactive) | 68.5 µM (inactive) | 19.5 µM (inactive) | 29.3 µM (inactive) | > 100 µM (inactive) | > 100 µM (inactive) | 39.5 µM (inactive) | 77.3 µM (inactive) | 37.7 µM (inactive) | > 100 µM (inactive) | > 100 µM (inactive) | > 100 µM (inactive) |
| CN(C)c1ccc(/C=N/c2ccc(Oc3ccc(Cl)cc3)c(Cl)c2)cc1 | 16.1 µM (inactive) | 28.3 µM (inactive) | 24.7 µM (inactive) | 21.3 µM (inactive) | 18.7 µM (inactive) | 18.7 µM (inactive) | 10.7 µM (inactive) | 22.1 µM (inactive) | 19.8 µM (inactive) | 13.1 µM (inactive) | 15 µM (inactive) | 18.5 µM (inactive) | 28.6 µM (inactive) | 19.3 µM (inactive) | 12.9 µM (inactive) | 13.7 µM (inactive) | 13.8 µM (inactive) | 17.7 µM (inactive) | 30.3 µM (inactive) | 21.6 µM (inactive) |
| CC12CC3(C)CC(C)(C1)CC(N=[N+]=[N-])(C2)C3 | > 100 µM (inactive) | > 100 µM (inactive) | > 100 µM (inactive) | > 100 µM (inactive) | > 100 µM (inactive) | > 100 µM (inactive) | > 100 µM (inactive) | > 100 µM (inactive) | > 100 µM (inactive) | > 100 µM (inactive) | > 100 µM (inactive) | > 100 µM (inactive) | > 100 µM (inactive) | > 100 µM (inactive) | > 100 µM (inactive) | > 100 µM (inactive) | > 100 µM (inactive) | > 100 µM (inactive) | > 100 µM (inactive) | > 100 µM (inactive) |
| O=C(Nc1nc2ncn(CCNCc3ccccc3)c2c(=O)[nH]1)c1ccccc1 | > 100 µM (inactive) | > 100 µM (inactive) | > 100 µM (inactive) | > 100 µM (inactive) | > 100 µM (inactive) | > 100 µM (inactive) | 50.8 µM (inactive) | > 100 µM (inactive) | > 100 µM (inactive) | 90.2 µM (inactive) | > 100 µM (inactive) | – | > 100 µM (inactive) | > 100 µM (inactive) | > 100 µM (inactive) | 63.8 µM (inactive) | > 100 µM (inactive) | > 100 µM (inactive) | > 100 µM (inactive) | > 100 µM (inactive) |
| CCN(CC)CCNCc1cc(Cl)cc2c1OCOC2 | > 10 µM (inactive) | > 10 µM (inactive) | > 10 µM (inactive) | > 10 µM (inactive) | > 10 µM (inactive) | > 10 µM (inactive) | > 10 µM (inactive) | > 10 µM (inactive) | – | > 10 µM (inactive) | > 10 µM (inactive) | > 10 µM (inactive) | > 10 µM (inactive) | > 10 µM (inactive) | > 10 µM (inactive) | > 10 µM (inactive) | > 10 µM (inactive) | > 10 µM (inactive) | > 10 µM (inactive) | > 10 µM (inactive) |
| COC(=O)c1cc(C)ccc1CC(Cc1cccc(C)c1)C(=O)OC (stereo not given) | 50.6 µM (inactive) | 17.3 µM (inactive) | > 100 µM (inactive) | > 100 µM (inactive) | > 100 µM (inactive) | > 100 µM (inactive) | > 100 µM (inactive) | > 100 µM (inactive) | > 100 µM (inactive) | 39.5 µM (inactive) | 34.8 µM (inactive) | 23.4 µM (inactive) | > 100 µM (inactive) | > 100 µM (inactive) | > 100 µM (inactive) | 13.6 µM (inactive) | 74.6 µM (inactive) | > 100 µM (inactive) | > 100 µM (inactive) | > 100 µM (inactive) |
| O=C1C(c2ccc(C3=[N+]([O-])c4cc([N+](=O)[O-])ccc4C3=O)cc2)=[N+]([O-])c2cc([N+](=O)[O-])ccc21 | > 10 µM (inactive) | > 10 µM (inactive) | > 10 µM (inactive) | > 10 µM (inactive) | 66.7 µM (inactive) | > 10 µM (inactive) | > 10 µM (inactive) | > 10 µM (inactive) | > 10 µM (inactive) | 36.2 µM (inactive) | > 10 µM (inactive) | > 10 µM (inactive) | > 10 µM (inactive) | > 10 µM (inactive) | > 10 µM (inactive) | – | > 10 µM (inactive) | > 10 µM (inactive) | > 10 µM (inactive) | > 10 µM (inactive) |
| OCc1nnn2c1CCC2 | > 100 µM (inactive) | > 100 µM (inactive) | > 100 µM (inactive) | – | > 100 µM (inactive) | > 100 µM (inactive) | > 100 µM (inactive) | 76 µM (inactive) | > 100 µM (inactive) | > 100 µM (inactive) | > 100 µM (inactive) | > 100 µM (inactive) | > 100 µM (inactive) | > 100 µM (inactive) | > 100 µM (inactive) | – | > 100 µM (inactive) | > 100 µM (inactive) | > 100 µM (inactive) | > 100 µM (inactive) |
